The values that follow come from patent EP4570245A1, “COMBINED AGENTS WITH SYNERGISTIC EFFECT AGAINST GLIOMAS” (Eberhard Karls Universität Tübingen Medizinische Fakultät, priority 2023, dated 2025).

Experiment [1] deals with LN18 and T98G glioma cell lines. In words: Clonogenic survival assay of shRNA knockdown cells under CCNU treatment. Format: cell-based. Here is the method: The inventors seeded the cells one day prior to treatment. The inventors then treated the cells with the specified concentrations in serum-free medium for 24 hours. Afterward, they changed the medium back to one containing FCS and incubated the cells for a period ranging from 14 to 21 days. The inventors stained the colonies using 0.5% w/v crystal violet and counted them. Measurements were normalized to the respective vehicle control wells.
Based on the CRISPR/Cas9 screen result a loss of the Fanconi anemia DNA repair pathway should increase the effect of CCNU treatment. Therefore, the inventors induced an shRNA knockdown in LN18 and T98G glioma cell lines for FANCA or FANCD2. These knockdown cell lines were treated in clonogenic survival assays with CCNU in comparison to a control cell line transduced with a vector coding for an shRNA against Luciferase (Figure 2).

Experiment [2] concerns the target T1, RMI (RecQ-mediated genome instability protein) core complex/MM2 interaction (Homo sapiens, UniProt Q96E14+Q9H9A7).
T1 sequence (Q9H9A7 473-625 limits assumed): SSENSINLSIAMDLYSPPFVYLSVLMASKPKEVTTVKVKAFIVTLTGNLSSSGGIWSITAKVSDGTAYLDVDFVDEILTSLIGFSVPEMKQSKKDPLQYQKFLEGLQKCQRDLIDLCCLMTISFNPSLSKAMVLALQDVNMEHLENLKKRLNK
T1 sequence (Q96E14 1-147): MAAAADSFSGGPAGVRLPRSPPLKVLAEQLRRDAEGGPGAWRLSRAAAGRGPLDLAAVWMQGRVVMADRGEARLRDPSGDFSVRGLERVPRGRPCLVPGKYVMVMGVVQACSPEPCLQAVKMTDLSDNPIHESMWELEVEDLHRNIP
The following applies: inhibitor of RMI core complex/MM2 interaction; MM2 is the binding site of RMI complex on FANCM; cited from earlier work.

Structures are written as SMILES.

With `O=NN(CCCl)C(=O)NC1CCCCC1` [CCNU, lomustine], the “sensitivity to CCNU treatment” value in experiment [1] (FANCA shRNA knockdown cell lines compared to the luciferase shRNA control) and in experiment [1] (FANCD2 shRNA knockdown cell lines compared to the luciferase shRNA control) was “more sensitive” throughout.
As to `CCOC(=O)N1CCN(C(c2ccccn2)c2c(-c3ccccc3)n(O)c3ccccc23)CC1` (stereo not drawn) [PIP-199], in experiment [2], the IC50 was 36 µM.
